In patent US20230310428A1, “EGFR INHIBITOR AND PREPARATION METHOD AND USE THEREOF” (HONGYUN BIOTECH CO., LTD., priority 2020, published 2023):
Read-outs that look alike come from different tables or passages of the source.

What was measured:
Test in all cases: Growth inhibitory activity of compounds on BaF3 cell lines stably transfected with kinase (MTS, 48 h)
Format in all cases: cell-based
[1] = target: T1, various mutants of kinase EGFR (BaF3 cell lines stably transfected with kinase) (Homo sapiens, UniProt P00533, T790M, form not given)
T1 construct: other: BaF3 cells stably transfected with EGFR Δ19Del/T790M; MTS, 48 h; other: BaF3 cell line stably transfected with EGFR Δ19Del/T790M; MTS, 48
Method: (§1) The activity of compounds against various mutants of kinase EGFR was evaluated by their effect of inhibiting growth of BaF3 cell lines stably transfected with kinase. The specific test method was given as follows:
(§2) 1) Culture medium: DMEM (Dulbecco’s modified eagle medium) or RPMI 1640 (containing 10% fetal bovine serum, 100 µg/mL ampicillin, 100 µg/mL streptomycin).
(§3) 2) Reagent: MTS reaction solution (containing 2 mg/mL of MTS [3-(4,5-dimethylthiazol-2-yl)-5-(3-carboxymethoxyphenyl)-2-(4-sulfophenyl)-2H-tetrazoliu m, inner Salt]; 100 µg/mL of PES ([…])).
(§4) 3) Compound test: cells were incubated into a 96-well culture plate, the volume of cytosol was 90 µL, and then 10 µL of the compound at each gradient concentration was added. That is, the highest concentration was 10 µM, which was diluted stepwise by ⅓, and 8 concentration points were set in total; 0.1% DMSO (dimethyl sulfoxide) was contained in the system. The cell plate with uniformly mixed compound was cultured in a cell culture incubator (37° C.; 5% CO2) for 48 h, then 20 µL of MTS reaction solution was added, uniformly mixed and incubated in the cell culture incubator (37° C.; 5% CO2) for 1-4 h. OD values at 490 nm were measured by a microplate reader (VARIOSKAN FLASH, Thermo). Two parallels were set in each group of experiments, with 0.1% (a final concentration) DMSO as a negative control, and a culture medium without cells and compounds as a blank control. The cell growth inhibition rate was calculated by the following formula: […]
(§5) 4) IC50 calculation: The semi-inhibitory concentration of the compounds acting on cells was calculated using GradPad Prism 5 software according to the measured cell growth inhibition rate.

[2] = target: T2, various mutants of kinase EGFR (BaF3 cell lines stably transfected with kinase) (Homo sapiens, UniProt P00533)
T2 construct: other: BaF3 cells stably transfected with EGFR Δ19Del; MTS, 48 h; other: BaF3 cell line stably transfected with EGFR Δ19Del
Method: as §1, §2, §3, §4, §5

[3] = target: T3, various mutants of kinase EGFR (BaF3 cell lines stably transfected with kinase) (Homo sapiens, UniProt P00533, L858R)
T3 construct: expressed in transfected cells; host or cells: BaF3
Method: as §1, §2, §3, §4, §5

[4] = target: T4, various mutants of kinase EGFR (BaF3 cell lines stably transfected with kinase) (Homo sapiens, UniProt P00533, T790M/C797S, form not given)
T4 construct: other: BaF3 cells stably transfected with EGFR Δ19Del/T790M/C797S; MTS, 48; other: BaF3 cell line stably transfected with EGFR Δ19Del/T790M/C7
Method: as §1, §2, §3, §4, §5

[5] = target: T5, various mutants of kinase EGFR (BaF3 cell lines stably transfected with kinase) (Homo sapiens, UniProt P00533, C797S/L858R/T790M)
T5 construct: expressed in transfected cells; host or cells: BaF3
Method: as §1, §2, §3, §4, §5

[6] = target: T6, various mutants of kinase EGFR (BaF3 cell lines stably transfected with kinase) (Homo sapiens, UniProt P00533, L858R/T790M)
T6 construct: expressed in transfected cells; host or cells: BaF3
Method: as §1, §2, §3, §4, §5

[7] = BaF3 cells stably transfected with EGFR Δ19Del/T790M, read-out: IC50, growth inhibition, Δ19Del/T790M
[8] = BaF3 cells stably transfected with EGFR Δ19Del, read-out: IC50, growth inhibition, Δ19Del
[9] = BaF3 cells stably transfected with EGFR L858R, read-out: IC50, growth inhibition, L858R
[10] = BaF3 cells stably transfected with EGFR Δ19Del/T790M/C797S, read-out: IC50, growth inhibition, Δ19Del/T790M/C797S
[11] = BaF3 cells stably transfected with EGFR L858R/T790M/C797S, read-out: IC50, growth inhibition, L858R/T790M/C797S
[12] = BaF3 cells stably transfected with EGFR L858R/T790M, read-out: IC50, growth inhibition, L858R/T790M
[13] = BaF3 cell line stably transfected with EGFR Δ19Del/T790M, read-out: Δ19Del/ T790M growth inhibitory activity IC50
[14] = BaF3 cell line stably transfected with EGFR Δ19Del, read-out: Δ19Del growth inhibitory activity IC50
[15] = BaF3 cell line stably transfected with EGFR L858R, read-out: L858R growth inhibitory activity IC50
[16] = BaF3 cell line stably transfected with EGFR Δ19Del/T790M/C797S, read-out: Δ19Del/T790M/ C797S growth inhibitory activity IC50
[17] = BaF3 cell line stably transfected with EGFR L858R/T790M/C797S, read-out: L858R/T790M/ C797S growth inhibitory activity IC50
[18] = BaF3 cell line stably transfected with EGFR L858R/T790M, read-out: L858R/ T790M growth inhibitory activity IC50

T4 sequence (P00533 with tags, fused parts or gaps DEL746-750/T790M/C797S, form open): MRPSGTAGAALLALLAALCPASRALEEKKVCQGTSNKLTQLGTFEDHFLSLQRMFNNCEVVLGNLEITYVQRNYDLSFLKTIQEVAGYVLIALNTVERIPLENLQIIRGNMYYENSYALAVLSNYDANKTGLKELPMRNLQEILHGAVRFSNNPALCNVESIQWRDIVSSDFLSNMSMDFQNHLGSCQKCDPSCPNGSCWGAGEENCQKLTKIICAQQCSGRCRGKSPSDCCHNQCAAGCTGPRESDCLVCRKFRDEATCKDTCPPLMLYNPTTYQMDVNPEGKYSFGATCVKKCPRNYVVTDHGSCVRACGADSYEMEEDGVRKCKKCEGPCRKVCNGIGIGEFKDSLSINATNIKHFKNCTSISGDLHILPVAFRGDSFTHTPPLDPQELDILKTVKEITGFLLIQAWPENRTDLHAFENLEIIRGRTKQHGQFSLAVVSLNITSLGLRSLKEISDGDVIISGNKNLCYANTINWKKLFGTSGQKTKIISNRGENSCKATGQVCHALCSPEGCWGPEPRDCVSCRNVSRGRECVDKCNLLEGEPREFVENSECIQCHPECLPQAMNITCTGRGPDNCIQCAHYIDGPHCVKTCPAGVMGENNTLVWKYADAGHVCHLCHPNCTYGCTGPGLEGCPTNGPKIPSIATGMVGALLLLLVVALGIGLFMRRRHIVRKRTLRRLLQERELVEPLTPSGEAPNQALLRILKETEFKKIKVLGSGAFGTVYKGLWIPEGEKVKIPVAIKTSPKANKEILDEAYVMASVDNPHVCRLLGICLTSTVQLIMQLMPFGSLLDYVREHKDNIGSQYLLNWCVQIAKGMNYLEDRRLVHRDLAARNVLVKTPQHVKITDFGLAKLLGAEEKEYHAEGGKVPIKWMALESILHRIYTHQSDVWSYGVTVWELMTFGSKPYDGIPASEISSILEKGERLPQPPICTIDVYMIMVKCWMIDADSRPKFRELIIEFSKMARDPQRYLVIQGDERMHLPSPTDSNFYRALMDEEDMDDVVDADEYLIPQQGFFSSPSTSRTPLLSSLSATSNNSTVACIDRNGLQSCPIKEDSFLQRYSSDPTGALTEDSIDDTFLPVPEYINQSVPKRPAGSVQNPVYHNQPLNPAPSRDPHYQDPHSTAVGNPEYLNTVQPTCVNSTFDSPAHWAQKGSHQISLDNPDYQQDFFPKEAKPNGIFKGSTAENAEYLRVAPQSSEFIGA
T2 sequence (P00533 with tags, fused parts or gaps DEL746-750): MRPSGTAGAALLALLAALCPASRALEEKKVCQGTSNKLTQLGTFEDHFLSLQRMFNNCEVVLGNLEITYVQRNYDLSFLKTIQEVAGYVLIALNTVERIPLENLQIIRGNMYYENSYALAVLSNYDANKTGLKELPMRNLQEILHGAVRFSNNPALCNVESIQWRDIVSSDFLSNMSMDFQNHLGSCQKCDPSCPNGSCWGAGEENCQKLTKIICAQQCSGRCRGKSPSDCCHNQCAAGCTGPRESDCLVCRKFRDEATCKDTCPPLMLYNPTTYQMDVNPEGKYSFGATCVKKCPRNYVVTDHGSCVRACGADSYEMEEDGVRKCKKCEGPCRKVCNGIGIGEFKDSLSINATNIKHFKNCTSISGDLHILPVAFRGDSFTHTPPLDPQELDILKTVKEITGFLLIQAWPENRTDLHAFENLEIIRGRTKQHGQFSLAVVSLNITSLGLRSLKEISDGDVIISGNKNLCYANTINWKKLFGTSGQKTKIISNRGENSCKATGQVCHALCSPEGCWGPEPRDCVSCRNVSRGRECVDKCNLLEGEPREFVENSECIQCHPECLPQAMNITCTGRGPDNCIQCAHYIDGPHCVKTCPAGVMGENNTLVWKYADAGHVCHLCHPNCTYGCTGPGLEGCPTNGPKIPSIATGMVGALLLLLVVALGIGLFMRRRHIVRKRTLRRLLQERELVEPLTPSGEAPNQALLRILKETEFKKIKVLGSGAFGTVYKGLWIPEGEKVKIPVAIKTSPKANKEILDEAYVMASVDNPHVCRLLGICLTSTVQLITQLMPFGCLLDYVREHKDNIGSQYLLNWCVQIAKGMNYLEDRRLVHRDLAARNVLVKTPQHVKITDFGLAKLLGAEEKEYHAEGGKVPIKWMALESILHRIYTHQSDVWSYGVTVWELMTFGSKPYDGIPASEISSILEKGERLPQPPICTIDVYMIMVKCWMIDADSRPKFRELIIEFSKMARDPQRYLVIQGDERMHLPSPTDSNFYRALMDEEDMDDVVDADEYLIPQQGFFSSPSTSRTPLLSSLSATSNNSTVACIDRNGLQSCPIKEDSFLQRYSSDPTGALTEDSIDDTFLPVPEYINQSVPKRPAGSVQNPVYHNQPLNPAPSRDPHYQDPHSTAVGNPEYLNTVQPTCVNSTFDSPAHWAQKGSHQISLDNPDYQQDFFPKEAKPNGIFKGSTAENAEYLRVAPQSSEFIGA
T6 sequence (P00533 25-1210 T790M/L858R): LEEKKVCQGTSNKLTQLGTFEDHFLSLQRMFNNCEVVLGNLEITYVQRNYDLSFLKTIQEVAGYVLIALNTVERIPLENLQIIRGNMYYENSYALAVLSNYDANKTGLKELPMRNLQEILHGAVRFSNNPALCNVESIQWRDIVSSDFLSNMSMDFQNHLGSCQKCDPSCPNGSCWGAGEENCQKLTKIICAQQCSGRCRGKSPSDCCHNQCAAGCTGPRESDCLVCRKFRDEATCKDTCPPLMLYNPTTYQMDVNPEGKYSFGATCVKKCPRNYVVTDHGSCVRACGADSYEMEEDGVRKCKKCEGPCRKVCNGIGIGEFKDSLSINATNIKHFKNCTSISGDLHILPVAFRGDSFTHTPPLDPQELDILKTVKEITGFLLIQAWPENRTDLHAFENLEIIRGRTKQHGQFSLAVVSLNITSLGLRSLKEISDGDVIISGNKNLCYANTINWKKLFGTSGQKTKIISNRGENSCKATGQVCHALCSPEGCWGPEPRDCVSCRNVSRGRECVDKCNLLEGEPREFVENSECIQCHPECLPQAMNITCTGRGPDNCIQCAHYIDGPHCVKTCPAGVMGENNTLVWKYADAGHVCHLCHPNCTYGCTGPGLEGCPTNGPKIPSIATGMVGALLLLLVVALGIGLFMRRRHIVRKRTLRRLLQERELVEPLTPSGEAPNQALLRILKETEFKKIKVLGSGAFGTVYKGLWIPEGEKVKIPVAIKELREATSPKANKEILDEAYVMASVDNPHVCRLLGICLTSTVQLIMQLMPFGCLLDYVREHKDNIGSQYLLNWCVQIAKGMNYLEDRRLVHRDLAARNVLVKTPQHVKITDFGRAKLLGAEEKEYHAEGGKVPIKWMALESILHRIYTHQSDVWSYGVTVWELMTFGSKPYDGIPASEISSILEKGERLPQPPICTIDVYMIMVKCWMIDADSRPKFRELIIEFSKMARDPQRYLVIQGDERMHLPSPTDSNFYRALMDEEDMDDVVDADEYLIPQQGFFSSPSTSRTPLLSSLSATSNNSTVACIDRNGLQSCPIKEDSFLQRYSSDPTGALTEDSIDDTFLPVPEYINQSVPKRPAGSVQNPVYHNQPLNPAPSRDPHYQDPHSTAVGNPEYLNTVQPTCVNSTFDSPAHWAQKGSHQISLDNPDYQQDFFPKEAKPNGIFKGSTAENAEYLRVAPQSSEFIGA
T3 sequence (P00533 25-1210 L858R): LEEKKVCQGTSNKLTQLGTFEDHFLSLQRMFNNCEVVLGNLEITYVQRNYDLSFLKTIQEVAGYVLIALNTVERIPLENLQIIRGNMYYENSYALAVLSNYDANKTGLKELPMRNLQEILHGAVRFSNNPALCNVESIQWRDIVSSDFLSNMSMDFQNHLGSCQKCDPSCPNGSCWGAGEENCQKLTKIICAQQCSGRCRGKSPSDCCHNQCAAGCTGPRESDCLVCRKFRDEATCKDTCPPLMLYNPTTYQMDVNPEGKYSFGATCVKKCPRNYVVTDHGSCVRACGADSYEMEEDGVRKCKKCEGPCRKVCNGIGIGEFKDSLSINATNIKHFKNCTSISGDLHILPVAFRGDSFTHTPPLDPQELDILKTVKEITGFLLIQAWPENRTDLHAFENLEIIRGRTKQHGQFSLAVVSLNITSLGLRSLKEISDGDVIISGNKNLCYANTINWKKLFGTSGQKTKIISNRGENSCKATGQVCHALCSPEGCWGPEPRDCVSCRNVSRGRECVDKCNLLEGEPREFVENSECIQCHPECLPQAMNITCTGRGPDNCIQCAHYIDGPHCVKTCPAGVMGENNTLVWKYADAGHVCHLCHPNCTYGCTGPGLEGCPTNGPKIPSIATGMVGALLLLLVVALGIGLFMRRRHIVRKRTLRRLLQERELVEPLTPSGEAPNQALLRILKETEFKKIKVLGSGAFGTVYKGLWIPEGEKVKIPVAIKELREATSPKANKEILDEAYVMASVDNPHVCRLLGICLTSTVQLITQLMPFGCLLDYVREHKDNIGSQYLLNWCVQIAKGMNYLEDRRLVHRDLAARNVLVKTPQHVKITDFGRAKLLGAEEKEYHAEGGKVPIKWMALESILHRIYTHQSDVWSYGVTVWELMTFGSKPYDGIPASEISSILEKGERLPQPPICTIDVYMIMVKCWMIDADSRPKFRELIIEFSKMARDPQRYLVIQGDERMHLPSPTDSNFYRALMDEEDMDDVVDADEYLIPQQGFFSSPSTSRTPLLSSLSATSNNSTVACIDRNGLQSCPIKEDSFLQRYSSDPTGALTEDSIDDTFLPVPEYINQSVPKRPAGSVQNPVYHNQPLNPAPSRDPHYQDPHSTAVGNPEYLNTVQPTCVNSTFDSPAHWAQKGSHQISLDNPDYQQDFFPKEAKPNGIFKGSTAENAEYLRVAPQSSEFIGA

IC50 [1, 7] | IC50 [2, 8] | IC50 [3, 9] | IC50 [4, 10] | IC50 [5, 11] | IC50 [6, 12] | IC50 [1, 13] | IC50 [2, 14] | IC50 [3, 15] | IC50 [4, 16] | IC50 [5, 17] | IC50 [6, 18] | Structure (SMILES)
50 to 500 nM | 50 to 500 nM | 500 to 2500 nM | ≤ 50 nM | ≤ 50 nM | 50 to 500 nM | – | – | – | – | – | – | COc1cc(N2CCC(N3CCN(C)CC3)CC2)c(C(C)C)cc1Nc1ncc(Br)c(Nc2ccc3nccnc3c2N(C)S(C)(=O)=O)n1 [Compound I-284]
– | – | – | – | – | – | ≤ 50 nM | 50 to 500 nM | 50 to 500 nM | 50 to 500 nM | 50 to 500 nM | 50 to 500 nM | CCc1cc(Nc2ncc(Br)c(Nc3ccc4nccnc4c3NS(C)(=O)=O)n2)c(OC(F)(F)F)cc1N1CCC(N2CCN(C)CC2)CC1 [Compound I-405]
≤ 50 nM | 50 to 500 nM | 50 to 500 nM | ≤ 50 nM | ≤ 50 nM | ≤ 50 nM | – | – | – | – | – | – | COc1cc(N2CCC(N3CCN(C)CC3)CC2)ccc1Nc1ncc(Br)c(Nc2ccc3nccnc3c2N(C2CC2)S(C)(=O)=O)n1 [Compound I-223]
– | – | – | – | – | – | 50 to 500 nM | 50 to 500 nM | 50 to 500 nM | ≤ 50 nM | 50 to 500 nM | 50 to 500 nM | COc1cc(N2CCC(N3CCN(C)CC3)CC2)ccc1Nc1ncc(C)c(Nc2ccc3nccnc3c2N(C)S(C)(=O)=O)n1 [Compound I-313]
≤ 50 nM | 50 to 500 nM | 50 to 500 nM | ≤ 50 nM | 50 to 500 nM | 50 to 500 nM | – | – | – | – | – | – | CCc1cc(Nc2ncc(Br)c(Nc3ccc4nccnc4c3N(C)S(=O)(=O)C3CC3)n2)c(OC(F)(F)F)cc1N1CCC(N2CCN(C)CC2)CC1 [Compound I-106]
≤ 50 nM | 50 to 500 nM | 50 to 500 nM | ≤ 50 nM | ≤ 50 nM | ≤ 50 nM | – | – | – | – | – | – | CCc1cc(Nc2ncc(Cl)c(Nc3ccc4nccnc4c3N(C)S(=O)(=O)CC)n2)c(OC)nc1N1CCC(N2CCN(C)CC2)CC1 [Compound I-234]
– | – | – | – | – | – | 500 to 2500 nM | 500 to 2500 nM | 500 to 2500 nM | 50 to 500 nM | 500 to 2500 nM | 500 to 2500 nM | CN1CCN(C2CCN(c3ccc(Nc4nc(Nc5ccc6nccnc6c5N(C)S(C)(=O)=O)c5[nH]ccc5n4)c(OC(F)(F)F)c3)CC2)CC1 [II-1-29]
≤ 50 nM | ≤ 50 nM | ≤ 50 nM | ≤ 50 nM | ≤ 50 nM | ≤ 50 nM | – | – | – | – | – | – | CCc1cc(Nc2ncc(Cl)c(Nc3ccc4nccnc4c3N(C)S(=O)(=O)C3CC3)n2)c(OC)cc1N1CCC(N2CCN(C)CC2)CC1 [Compound I-120]
≤ 50 nM | ≤ 50 nM | 50 to 500 nM | ≤ 50 nM | ≤ 50 nM | ≤ 50 nM | – | – | – | – | – | – | CCc1cc(Nc2ncc(Cl)c(Nc3ccc4nccnc4c3N(C3CC3)S(C)(=O)=O)n2)c(OC)cc1N1CCC(N2CCN(C)CC2)CC1 [Compound I-160]
– | – | – | – | – | – | 50 to 500 nM | ≤ 50 nM | ≤ 50 nM | 50 to 500 nM | ≤ 50 nM | ≤ 50 nM | CCc1cc(Nc2nccc(Nc3ccc4nccnc4c3N(C)S(C)(=O)=O)n2)ccc1N1CCC(N2CCN(C)CC2)CC1 [Compound I-344]
– | – | – | – | – | – | 50 to 500 nM | 50 to 500 nM | 50 to 500 nM | ≤ 50 nM | ≤ 50 nM | 50 to 500 nM | CCc1cc(Nc2ncc(Br)c(Nc3ccc4nccnc4c3N(C)S(C)(=O)=O)n2)c(OC)cc1N1CCC(N2CCN(C)CC2)CC1 [Compound I-396]
– | – | – | – | – | – | 500 to 2500 nM | 500 to 2500 nM | 500 to 2500 nM | 50 to 500 nM | 500 to 2500 nM | 500 to 2500 nM | COc1cc(N2CCC(N3CCN(C)CC3)CC2)ccc1Nc1nc(Nc2ccc3nccnc3c2N(C)S(C)(=O)=O)c2sccc2n1 [II-1-1]
≤ 50 nM | ≤ 50 nM | ≤ 50 nM | ≤ 50 nM | ≤ 50 nM | ≤ 50 nM | – | – | – | – | – | – | CCc1cc(Nc2ncc(Cl)c(Nc3ccc4nccnc4c3N(C)S(=O)(=O)CC)n2)c(OC)cc1N1CCC(N(C)C)C1 (stereo not drawn) [Compound I-118]
≤ 50 nM | 50 to 500 nM | 50 to 500 nM | ≤ 50 nM | ≤ 50 nM | 50 to 500 nM | – | – | – | – | – | – | CCc1cc(Nc2ncc(Br)c(Nc3ccc4nccnc4c3N(C)S(=O)(=O)CC)n2)c(OC(F)(F)F)cc1N1CCC(N2CCN(C)CC2)CC1 [Compound I-101]
– | – | – | – | – | – | ≤ 50 nM | ≤ 50 nM | ≤ 50 nM | ≤ 50 nM | ≤ 50 nM | ≤ 50 nM | CCN(c1c(Nc2nc(Nc3cc(N4CCC(O)CC4)ccc3OC)ncc2Cl)ccc2nccnc12)S(C)(=O)=O [Compound I-377]
≤ 50 nM | ≤ 50 nM | ≤ 50 nM | ≤ 50 nM | ≤ 50 nM | ≤ 50 nM | – | – | – | – | – | – | CCN(c1c(Nc2nc(Nc3cc(C)c(N4CCC(N5CCN(C)CC5)CC4)cc3OC)ncc2Br)ccc2nccnc12)S(C)(=O)=O [Compound I-94]
– | – | – | – | – | – | 50 to 500 nM | 50 to 500 nM | 500 to 2500 nM | 50 to 500 nM | 50 to 500 nM | 50 to 500 nM | CCc1cc(Nc2nc(Nc3ccc4nccnc4c3N(C)S(C)(=O)=O)c3[nH]ccc3n2)c(OC(F)(F)F)cc1N1CCC(N2CCN(C)CC2)CC1 [II-1-22]
≤ 50 nM | 50 to 500 nM | 50 to 500 nM | ≤ 50 nM | ≤ 50 nM | ≤ 50 nM | – | – | – | – | – | – | COc1cc(N2CCC(N(C)C)CC2)c(C)cc1Nc1ncc(Br)c(Nc2ccc3nccnc3c2N(C)S(=O)(=O)C2CC2)n1 [Compound I-221]
50 to 500 nM | 500 to 2500 nM | 500 to 2500 nM | 50 to 500 nM | 50 to 500 nM | 500 to 2500 nM | – | – | – | – | – | – | C=Cc1cc(Nc2ncc(Cl)c(Nc3ccc4nccnc4c3N(C)S(=O)(=O)C(F)(F)F)n2)c(OC(F)(F)F)cc1N1CCC(N2CCN(C)CC2)CC1 [Compound I-263]
– | – | – | – | – | – | 50 to 500 nM | 50 to 500 nM | 50 to 500 nM | ≤ 50 nM | 50 to 500 nM | 50 to 500 nM | COc1cc(N2CCC(N3CCN(C)CC3)CC2)ccc1Nc1ncc(C(C)C)c(Nc2ccc3nccnc3c2N(C)S(C)(=O)=O)n1 [Compound I-325]
50 to 500 nM | ≤ 50 nM | ≤ 50 nM | ≤ 50 nM | ≤ 50 nM | ≤ 50 nM | – | – | – | – | – | – | COc1cc(N2CCC(N3CCN(C)CC3)CC2)c(C)cc1Nc1ncc(F)c(Nc2ccc3nccnc3c2N(C)S(C)(=O)=O)n1 [Compound I-25]
500 to 2500 nM | 500 to 2500 nM | 500 to 2500 nM | 50 to 500 nM | 50 to 500 nM | 500 to 2500 nM | – | – | – | – | – | – | COc1cc(N2CCC(N3CCN(C)CC3)CC2)c(CC2CC2)cc1Nc1ncc(Cl)c(Nc2ccc3nccnc3c2N(C)S(=O)(=O)C(F)(F)F)n1 [Compound I-264]
≤ 50 nM | ≤ 50 nM | ≤ 50 nM | ≤ 50 nM | ≤ 50 nM | ≤ 50 nM | – | – | – | – | – | – | CCN(c1c(Nc2nc(Nc3cc(CC4CC4)c(N4CCC(N5CCN(C)CC5)CC4)cc3OC)ncc2Br)ccc2nccnc12)S(C)(=O)=O [Compound I-213]
